“And” between values parts separate entries of the source, which are not always exact repeats. Identical values can stand only once. Like-named read-outs stand apart in the source and are kept apart here.
Key:
transformed ("EBV") PBMC = experiment: Lymphocyte proliferation (3H-TdR incorporation), EBV-transformed PBMC; format: cell-based, human; conditions: for IC50: read-out: IC50 of cell proliferation; for ability to inhibit proliferation, 2 vs 1 J/cm^2: UV-A 2 J/cm^2 relative to 1 J/cm^2; for effect of UV-A on ability to inhibit proliferation: UV-A vs none; for effect of visible light on ability to inhibit proliferation: visible light vs none
Source text: In two of the types of lymphocytes, the mitogen, ConA, was used to induce proliferation, as described (Fox et al., 1993, Cell. Immunol. 150:45-58). The third type of lymphocytes used in this example proliferated actively in vitro without the need for mitogenic stimulation. The three types of lymphocytes which were used in this example were: PBMC obtained from a normal human subject and stimulated with ConA; PBMC, including malignant CD4+ T-lymphocytes, obtained from a human subject having CTCL and stimulated with ConA; and PBMC obtained from a normal human subject, which PBMC were exposed to Epstein-Barr virus (EBV) after being obtained from the subject, to produce transformed lymphocytes. It is known that EBV-transformed B-lymphocytes proliferate actively in vitro (Polack, 1996, Proc. Natl. Acad. Sci. U.S.A. 93:10411-10416; Longnecker, 1994, Leukemia 8:546-550).
Peripheral blood mononuclear cells (PBMC) were obtained by separating them from whole blood, using Ficoll-Paque separation techniques and media (Boyum, 1964, Nature 793-794). After they were obtained, PBMC were resuspended in RPMI 1640 medium, which comprised 10% (v/v) fetal bovine serum (GIBCO, Grand Island, N.Y.), and were distributed into the wells of 96-well microtiter plates. PBMC transformed using EBV were made as described (Neitzel, 1986, Hum. Gen. 73:320-326)
This stock solution stored at 4° C. in the dark. A stock solution comprising 462.5 μM 8-methoxypsoralen (8-MOP) was prepared in 2% (v/v) benzyl alcohol. 8-MOP was obtained from Sigma (St. Louis, Mo.).
In cultures of transformed leukocytes in which 8-MOP was used, the concentrations of 8-MOP which were used were 92.5 μM, 18.5 μM, 3.7 μM, 0.74 μM, 0.15 μM, and 0.030 μM. Thereafter, ConA was then added to preselected wells to achieve a final concentration of 10 μg/ml of ConA in those wells.
Following preparation of the microtiter culture plates, preselected plates were illuminated with fluorescent visible light for 10-30 minutes, using four fluorescent bulbs (type F15T8CW, TFC Inc., Taiwan) spaced at a distance of 9 cm above the plates. Other preselected plates were illuminated with 0.5-2 Joules per square centimeter UV-A light using a UV-A light box containing 8 UVAR 06-91 bulbs. Still other preselected plates were not exposed to light. The covers of plates which were exposed to light were left in place during illumination.
Following illumination, plates which had been illuminated were placed into a dark incubator which was maintained at 37° C. Non-illuminated plates were placed into the incubator immediately after preparation. All plates were incubated for seventy-two hours. During the final eighteen hours of incubation, tritiated thymidine (^3 H-TdR) was added to each well of each plate. No extraordinary precautions were used to prevent light exposure during the addition of ^3 H-TdR.
Lymphocyte proliferation was assessed by measuring the extent of incorporation of ^3 H-TdR into newly synthesized DNA within the cells at the end of the seventy-two hour incubation period, as described (Fox, 1993, Cell. Immunol. 150:45-58).

[1] = test system: PBMC obtained from a subject having CTCL; experiment: Induction of apoptosis in CTCL PBMC, TUNEL assay (Example 3); format: cell-based, human; conditions: for percentage of PBMC which underwent apoptosis: CTCL, 18 h; for capability of inducing apoptosis: malignant leukocytes
[2] = test system: PBMC from a patient to whom 8-MOP had been administered; experiment: ConA-induced proliferation of PBMC from a patient to whom 8-MOP had been administered, visible light; format: cell-based, human; conditions: 20 min
Description: PBMC from a patient to whom 8-MOP had been administered were illuminated for 20 minutes using the bank of visible fluorescent lights used in the experiments described in this example. Proliferation of these cells in response to ConA was measured.

[3] = Absorbance spectrum / photoactivation wavelength; format: physicochemical; conditions: 20 μM hypericin in phosphate-buffered saline
Source text: Absorbance maxima which were observed included maxima at 327 nm, 563 nm, and 603 nm.

[4] = cited from earlier work
enveloped virus = conditions: hypericin photoactivated prior to treatment of virus; cited from earlier work
glioma cells = conditions: in vitro; cited from earlier work
leukemia cells = conditions: cited from earlier work
[5] = test system: xenografted carcinoma cells; conditions: intraperitoneal; local illumination of skin; cited from earlier work
viruses = conditions: photoactivated; in vitro; cited from earlier work
leukocytes = conditions: photoactivated; cited from earlier work
protein kinase = conditions: cited from earlier work
[6] = photoreaction; cited from earlier work
[7] = Homo sapiens, PBMC, 10 min, visible light, 10 min
[8] = Homo sapiens, PBMC, 20 min, visible light, 20 min
[9] = Homo sapiens, PBMC, 0.5 h, visible light, 30 min
[10] = Homo sapiens, PBMC, UV-A, 0.5 J/sc
[11] = Homo sapiens, PBMC, UV-A, 1 J/sc
[12] = Homo sapiens, PBMC, UV-A, 2 J/sc
[13] = Homo sapiens, PBMC, not illuminated

Row | SMILES | IC50 (transformed ("EBV") PBMC; [7]) | IC50 (transformed ("EBV") PBMC; [8]) | IC50 (transformed ("EBV") PBMC; [9]) | IC50 (transformed ("EBV") PBMC; [10]) | IC50 (transformed ("EBV") PBMC; [11]) | IC50 (transformed ("EBV") PBMC; [12]) | IC50 (transformed ("EBV") PBMC; [13]) | ability to inhibit proliferation, 2 vs 1 J/cm^2 (transformed ("EBV") PBMC) | effect of UV-A on ability to inhibit proliferation (transformed ("EBV") PBMC) | effect of visible light on ability to inhibit proliferation (transformed ("EBV") PBMC) | percentage of PBMC which underwent apoptosis ([1]; 1 μM, UV-A 2 J/cm^2) | percentage of PBMC which underwent apoptosis ([1]; 1 μM, no light) | percentage of PBMC which underwent apoptosis ([1]; 1 μM, visible light 20 min) | percentage of PBMC which underwent apoptosis ([1]; 10 μM, UV-A 2 J/cm^2) | percentage of PBMC which underwent apoptosis ([1]; 10 μM, no light) | percentage of PBMC which underwent apoptosis ([1]; 10 μM, visible light 20 min) | capability of inducing apoptosis ([1]; UV-A light) | capability of inducing apoptosis ([1]; visible light) | other results
1 | COc1c2occc2cc2ccc(=O)oc12 [8-MOP, 8-methoxypsoralen] | 18.7 µM | 17.3 µM | 18.9 µM | 4.2 µM | 1.6 µM | 0.7 µM | 19.4 µM | roughly doubled | enhanced significantly upon illumination using UV-A light | not enhanced upon illumination using visible light | 44.0 percentage | 2.5 percentage | 11.0 percentage | 74.3 percentage | 2.4 percentage | 12.2 percentage | capable of inducing apoptosis in malignant leukocytes | not 8-MOP, is capable of inducing apoptosis in both normal and malignant leukocytes | selectivity of apoptosis induction, malignant vs normal leukocytes ([1]; UV-A light): the magnitude of the selective effect was much smaller; illumination-dependent inhibition of proliferation [2]: No illumination-dependent inhibition of proliferation
2 | Cc1cc(O)c2c(=O)c3c(O)cc(O)c4c5c(O)cc(O)c6c(=O)c7c(O)cc(C)c8c1c2c(c34)c(c78)c65 [hypericin, 1,3,4,6,8,13-Hexahydroxy-10,11,dimethyl-phenanthro[1,10,9,8,-opqra]perylene-7,14-dione] | 3.2 µM | 1.8 µM | 0.75 µM | 3.7 µM | 2.1 µM | 2 µM | 36 µM | essentially the same | enhanced significantly upon illumination using UV-A light | enhanced significantly upon illumination using visible light | 26.1 percentage | 2.6 percentage | 17.2 percentage | 94.4 percentage | 2.8 percentage | 94.3 percentage | capable of inducing apoptosis in malignant leukocytes | capable of inducing apoptosis in both normal and malignant leukocytes | IC100 (transformed ("EBV") PBMC; Homo sapiens, PBMC, 72 h, visible light, 30 min, read-out: concentration at which proliferation was completely inhibited): 3.2 µM; inhibition of proliferation after 30 min illumination (transformed ("EBV") PBMC; visible light, 30 vs 10 or 20 min): greater than that which resulted from illumination for a period of 10 or 20 minutes; absorbance maximum [3]: 327 nm and 563 nm and 603 nm; presence in skin ([4]; after systemic administration): demonstrated in skin after systemic administration; presence in blood plasma ([4]; following administration to mammals): remains in the blood plasma; half life ([4]; in vivo): 20 to 24 h; effect on enveloped virus (enveloped virus): reduce the infectious titer of the enveloped virus, but did not inactivate the virus; effect of light on antiproliferative effects (glioma cells): only slightly enhance hypericin's antiproliferative effects on glioma cells; inhibition of proliferation (leukemia cells): incapable of inhibiting proliferation of leukemia cells; inhibition of proliferation of xenografted carcinoma cells [5]: inhibited proliferation of these carcinoma cells; inactivation of viruses in blood compositions (viruses): could be used to inactivate viruses in blood compositions in vitro; effect on leukocytes (leukocytes): no effect of hypericin on leukocytes; protein kinase inhibition (protein kinase): inhibits protein kinase activity; singlet oxygen production [6]: produce singlet oxygen

Source: US6001882A (priority 1997, dated 1999)
